The IC50 is the midpoint of a concentration-inhibition curve. Low readings indicate greater potency, high ones weaker potency. For orientation: solubility means how much of the substance goes into solution per volume. Low values mean little dissolved substance, high ones much dissolved substance.

We go through three molecules from patent US9896471B2, “Salt of 1-(2-deoxy-2-fluoro-4-thio-β-D-arabinofuranosyl)cytosine” (FUJIFILM Corporation, priority 2012, dated 2018).

One data set deals with BxPC-3. As to the kind of experiment: Antitumor activity: cell proliferation inhibition (ATPlite). In kind it is cell-based. The following applies: BxPC-3, 1000 cells/well, 3 days culture. Here is the method:
(§1) Cells at the logarithmic phase were inoculated on a 96-well plate at a density of 1000 cells/well (BxPC-3, MIA PaCa-2) or 3000 cells/well (Capan-1), and cultured overnight at 37° C. in a CO2 incubator. On the next day, serially diluted solutions of each test compound were added, and culture was performed for 3 days in an incubator. After completion of the culture, by using a cell proliferation assay kit ATPlite (Perkin Elmer), and a plate reader Envision (Perkin Elmer), emission was measured. Concentrations of the test compounds providing 50% of cell proliferation inhibition (IC50) were calculated by fitting using a sigmoid function. The solutions of the test compounds were prepared by diluting them with PBS (pH 7.4) at 10 mM, and further diluting the 10 mM solutions with PBS (pH 7.4), and used in the test.
(In general: In ATP-based viability assays light output follows the ATP content of the culture.)

The next data set has as its system Capan-1. The description is as above. Particulars: Capan-1, 3000 cells/well, 3 days culture. In kind it is cell-based. Here is the method: as §1
The subject of the next data set is MIA PaCa-2. The description is as above. The format is cell-based. The following applies: MIA PaCa-2, 1000 cells/well, 3 days culture. How it is done:
as §1

In a further data set the test system is tumors. The following applies: orally administered to mice; Non-patent documents 1 and 2; cited from earlier work.
Data set [1] in a line: Flowability test (compaction rate). The following applies: powder sieved 177 μm mesh; (compacted − loose bulk density)/compacted bulk density × 100. In kind it is physicochemical. From the text: The obtained powdery sample was roughly filled in a glass measuring cylinder (10 cm^3), the upper surface of the powder layer was horizontally smoothened, and the value of the volume was read. The weight of the powdery sample was divided with the volume to obtain loose bulk density (g/cm^3).
Then, the glass measuring cylinder filled with the powdery sample was tapped by using a general powdery characteristic measuring apparatus (Powdertester Type PT-E, Hosokawa Micron CORP.). When the volume of the powder layer no longer changed, the value of the volume was read. The weight of the powdery sample was divided with the volume to obtain compacted bulk density (g/cm^3).
The compaction rate (%) was obtained in accordance with the following equation. Compaction rate (%)=[(Compacted bulk density−Loose bulk density)/Compacted bulk density]×100

The next data set is described as follows: Tableting property test. In kind it is physicochemical. The following applies: average of five tabletings; 5 points surface has gloss, 1 point surface is chipped, 0 point tablets stick to pestle; 1000 kgf, 100 mg tablet. How it is done:
The obtained powdery sample was compression-molded by using a tableting machine (Tableting Machine HT-P18A, Hata Iron Works, Ltd.; tableting diameter, 6.5 mm; tableting pressure, 1000 kgf; tablet weight, 100 mg) to obtain tablets. The obtained tablets were macroscopically observed, and graded according to the following criteria.
5 Points: Surface has gloss.
4 Points: Surface is slightly roughened.
3 Points: Surface is roughened.
2 Points: Surface is slightly chipped.
1 Point: Surface is chipped.
0 Point: Tablets stick to pestle, and cannot be unstuck.
The tableting was performed five times, and averages of the scores of the tablets were calculated.

Data set [2] in a line: Stability test (deliquescence on storage). The format is physicochemical. Particulars: stored 2 weeks, open state, 60° C. and 75% relative humidity, macroscopic observation. Here is the method: The compounds of Examples 1 and 2 were stored for 2 weeks in an open state under conditions of 60° C. and 75% relative humidity. The test compounds were macroscopically observed after the storage, and presence or absence of deliquescence was examined.

Converted amounts (≈) assume the structure as drawn.

Procedure for Solubility test in water: Each of the test compounds and the comparative compound was added to water, and the mixture was stirred at room temperature for 24 hours. The insoluble matter was removed by filtration using a membrane filter (0.2 μm). The filtrate was analyzed by high performance liquid chromatography (HPLC) to obtain the solubility.

Regarding `Nc1ccn([C@@H]2S[C@H](CO)[C@@H](O)[C@@H]2F)c(=O)n1` [Comparative compound, 1-(2-deoxy-2-fluoro-4-thio-β-D-arabinofuranosyl)cytosine], the IC50 is 45 nM with BxPC-3 (Homo sapiens, 72 h); 35 nM in the data set on Capan-1 (Homo sapiens, 72 h); 382 nM with MIA PaCa-2 (Homo sapiens, 72 h). In the data set on tumors, the antitumor activity result was “potent antitumor activity”. For the same molecule, the Compaction rate in data set [1] is listed as 41%. The molecule further had a solubility at 24 h in the data set “Solubility test in water” (thermodynamic from solid) of 2000 µg/mL (≈ 7.65 mM). Further, the “Score (tableting property)” value in the data set “Tableting property test” turned out to be 1.0.
`CS(=O)(=O)O.Nc1ccn([C@@H]2S[C@H](CO)[C@@H](O)[C@@H]2F)c(=O)n1` [Example 1, methanesulfonate of 1-(2-deoxy-2-fluoro-4-thio-β-D-arabinofuranosyl)cytosine]: in data set [2], the “presence or absence of deliquescence” value is reported as “did not deliquesce”. Moreover, the IC50 worked out at 45 nM in the data set on BxPC-3, 36 nM in the data set with Capan-1 and 373 nM in the data set with MIA PaCa-2. Further, the Compaction rate in data set [1] came to 18%. The molecule further registered a Solubility in water in the data set “Solubility test in water” (room temperature, stirred 24 hours, 0.2 μm filtration, HPLC) of 79000 µg/mL. For the same molecule, the “Score (tableting property)” value in the data set “Tableting property test” was found to be 4.5.
As to `Cl.Nc1ccn([C@@H]2S[C@H](CO)[C@@H](O)[C@@H]2F)c(=O)n1` [Example 2, hydrochloride of 1-(2-deoxy-2-fluoro-4-thio-β-D-arabinofuranosyl)cytosine], the “presence or absence of deliquescence” value in data set [2] is on record as “did not deliquesce”. The values for the IC50 in the data set on BxPC-3, with Capan-1 and in the data set on MIA PaCa-2 were 41 nM, 31 nM and 417 nM, respectively. This molecule also yielded a Compaction rate in data set [1] of 21%. In addition, in “Tableting property test”, the “Score (tableting property)” value is on record as 5.0.
